Data reported in patent publication US5986108A, “4-substitued-3-[1 or 2 amino acid residue]-azetidin-2-one derivatives useful as cysteine proteinase inhibitor” (Synphar Laboratories, Inc., priority 1997, dated 1999).

Key:
Type in all cases: biochemical
papain = molecular target: T1, papain (Carica papaya, UniProt P00784); experiment: Assay of inhibition of papain (N-CBZ-Pro-Phe-Arg-pNA substrate)
T1 sequence (P00784 134-345): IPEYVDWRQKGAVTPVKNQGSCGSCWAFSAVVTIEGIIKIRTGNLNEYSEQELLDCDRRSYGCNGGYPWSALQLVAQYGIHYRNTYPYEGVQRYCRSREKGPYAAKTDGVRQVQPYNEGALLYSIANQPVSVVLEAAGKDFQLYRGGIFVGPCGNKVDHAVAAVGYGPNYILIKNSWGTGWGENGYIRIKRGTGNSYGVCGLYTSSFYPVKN
Description: To a 170 μl of enzyme-buffer mixture (enzyme:papain, diluted to give 30 mOD/min, buffer: 0.2M potassium phosphate, 1.0 mM EDTA, 5 mML Cysteine, pH6.5) a 10 μl of inhibitor (dissolved in DMSO) was added. After 10 min of incubation at room temperature, 20 μl of 10 mM substrate (N-CBZ-Pro-Phe-Arg-pNA, dissolved in DMSO) was added to initiate reaction. Reading is followed up for 3 min at the Thermomax plate reader(absorbance at 405 nm).
A plot of percentage of inhibition vs inhibitor concentration is obtained, and IC50 is determined using a linear regression calculations (concentration of inhibitor which will give 50% inhibition).

Cathepsin B = Cathepsin B (Rattus norvegicus, UniProt P00787); experiment: In vitro assay of inhibition of Cathepsin B (N-CBZ-Phe-Arg-AMC substrate); conditions: r rat CathB, pH5.1, 10 min preincubation at room temperature; read-out: IC50, Cathepsin B
Description: After 10 min of incubation at room temperature a 20 μl of 5 mM substrate (N-CBZ-Phe-Arg-AMC, dissolved in DMSO) was added to initiate reaction. Reading is followed up for 10 min at the Fluoroscan reader (excitation at 380 nm, emission at 460 nm).

Cathepsin L = Cathepsin L (Rattus norvegicus, UniProt P07154); experiment: Assay of inhibition of Cathepsin L (N-CBZ-Phe-Arg-AMC substrate); conditions: r rat CathL, pH5.0, 10 min preincubation at room temperature; read-out: IC50, Cathepsin L
Description: After 10 min of incubation at room temperature a 20 μl of 1 mM substrate (N-CBZ-Phe-Arg-AMC, dissolved in DMSO) was added to initiate reaction. Reading is followed up for 10 min at the Fluoroscan reader (excitation at 380 nm, emission at 460 nm).

Chain of Cathepsin L (P07154 114-334): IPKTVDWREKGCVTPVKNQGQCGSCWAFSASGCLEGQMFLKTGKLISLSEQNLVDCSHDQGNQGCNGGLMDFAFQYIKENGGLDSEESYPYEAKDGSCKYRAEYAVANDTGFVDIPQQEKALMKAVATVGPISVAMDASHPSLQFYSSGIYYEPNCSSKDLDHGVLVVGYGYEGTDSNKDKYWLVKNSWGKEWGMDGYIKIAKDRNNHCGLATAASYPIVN
Chain of Cathepsin B (P00787 80-339): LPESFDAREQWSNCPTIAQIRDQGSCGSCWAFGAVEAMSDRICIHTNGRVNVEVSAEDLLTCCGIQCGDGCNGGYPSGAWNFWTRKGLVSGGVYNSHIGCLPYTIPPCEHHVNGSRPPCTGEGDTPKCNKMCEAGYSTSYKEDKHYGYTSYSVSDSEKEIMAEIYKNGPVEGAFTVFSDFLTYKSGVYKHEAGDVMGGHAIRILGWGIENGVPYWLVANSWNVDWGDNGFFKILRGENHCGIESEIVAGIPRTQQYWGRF

Row | Compound | IC50 (papain) | IC50 (Cathepsin B) | IC50 (Cathepsin L)
1 | CON1C[C@H](NC(=O)[C@H](Cc2ccccc2)NC(=O)OCc2ccccc2)C1=O [Example 1, (3S)-3-(N-benzyloxycarbonyl-L-phenylalanyl)-amino-1-methoxy-azetidin-2-one] | > 63 µM | > 63 µM | –
2 | O=C(N[C@@H](Cc1ccccc1)C(=O)N[C@H]1CNC1=O)OCc1ccccc1 [Example 2, (3S)-3-(N-benzyloxycarbonyl-L-phenylalanyl)-amino-azetidin-2-one] | 15.8 µM | 4.81 µM | –
3 | CON1C[C@@H](NC(=O)[C@H](Cc2ccccc2)NC(=O)OCc2ccccc2)C1=O [Example 3, (3R)-3-(N-benzyloxycarbonyl-L-phenylalanyl)-amino-1-methoxy-azetidin-2-one] | > 63 µM | 52 µM | –
4 | O=C(N[C@@H](Cc1ccccc1)C(=O)N[C@@H]1CNC1=O)OCc1ccccc1 [Example 4, (3R)-3-(N-benzyloxycarbonyl-L-phenylalanyl)-amino-azetidin-2-one] | 57 µM | – | –
5 | C[C@H]1[C@H](NC(=O)[C@H](Cc2ccccc2)NC(=O)OCc2ccccc2)C(=O)N1S(=O)(=O)O [Example 5, Potassium (3S,4S)-3-(N-benzyloxycarbonyl-L-phenylalanyl)-amino-4-methyl-azetidin-2-one-1-sulfonate] | > 25 µM | > 25 µM | –
6 | CC(=O)O[C@@H]1NC(=O)[C@H]1NC(=O)[C@H](Cc1ccccc1)NC(=O)OCc1ccccc1 [Example 7, (3S,4S)-3-(N-benzyloxycarbonyl-L-phenylalanyl)-amino-4-acetoxy-azetidin-2-one] | 0.275 µM | – | –
7 | CC(=O)O[C@@H]1NC(=O)[C@H]1NC(=O)[C@H](Cc1ccccc1)NC(=O)CCc1ccccc1 [Example 10, (3S,4S)-3-{N-(3-phenylpropionoyl)-L-phenylalanyl}-amino-4-acetoxy-azetidin-2-one] | – | 0.47 µM | 35 nM
8 | CC(=O)O[C@@H]1NC(=O)[C@H]1NC(=O)[C@H](Cc1ccccc1)NS(=O)(=O)/C=C/c1ccccc1 [Example 11] | – | 1.66 µM | 1840 nM
9 | CC(=O)O[C@@H]1NC(=O)[C@H]1NC(=O)[C@H](Cc1ccccc1)NC(=O)N1CCOCC1 [Example 12, (3S,4S)-3-{N-(morpholin-yl-carbonyl)-L-phenylalaninyl}-amino-4-acetoxy-azetidin-2-one] | – | 7.4 µM | 1580 nM
10 | CC(=O)O[C@@H]1NC(=O)[C@H]1NC(=O)[C@H](Cc1ccccc1)NC(=O)CCN1CCOCC1 [Example 13] | – | 39.2 µM | 2310 nM
11 | CC(=O)O[C@@H]1NC(=O)[C@H]1NC(=O)[C@H](Cc1ccccc1)NC(=O)CCc1cccnc1 [Example 14, (3S,4S)-3-{N-(3-pyrid-3-yl-propionoyl)-L-phenylalanyl}-amino-4-acetoxy-azetidin-2-one] | – | 24.5 µM | 1290 nM
12 | CC(=O)Oc1ccc(OCC(=O)N[C@@H](Cc2ccccc2)C(=O)N[C@@H]2C(=O)N[C@H]2OC(C)=O)cc1 [Example 15, (3S,4S)-3-[N-{2-(4-acetoxyphenoxy)-ethanoyl}-L-phenylalanyl]-amino-4-acetoxy-azetidin-2-one] | – | 6.33 µM | 2070 nM
13 | CC(=O)O[C@@H]1NC(=O)[C@H]1NC(=O)[C@H](Cc1ccccc1)NC(=O)c1cc2ccccc2o1 [Example 16, (3S,4S)-3{N-(benzofuran-2-yl-carbonyl)-L-phenylalanyl}-amino-4-acetoxy-azetidin-2-one] | – | 5.68 µM | 35 nM
14 | CC(=O)O[C@@H]1NC(=O)[C@H]1NC(=O)[C@H](Cc1ccccc1)NC(=O)/C=C/c1cccs1 [Example 17, (3S,4S)-3-[N-{3-(thiophen-2-yl)-trans-prop-2-enoyl}-L-phenylalanyl]-amino-4-acetoxy-azetidin-2-one] | – | 5.37 µM | 31.5 nM
15 | CC(=O)O[C@@H]1NC(=O)[C@H]1NC(=O)[C@H](Cc1ccccc1)NS(=O)(=O)c1ccc(C(C)(C)C)cc1 [Example 18] | – | 2.12 µM | 82 nM
16 | CC(=O)O[C@@H]1NC(=O)[C@H]1NC(=O)[C@H](Cc1ccccc1)NS(=O)(=O)c1ccc2ccccc2c1 [Example 19, (3S,4S)-3-{N-(naphthalen-2-yl-sulfonyl)-L-phenylalanyl}-amino-4-acetoxy-azetidin-2-one] | – | 7.22 µM | 416 nM
17 | O=C(N[C@@H](Cc1ccccc1)C(=O)N[C@@H]1C(=O)N[C@H]1Sc1ccccc1)OCc1ccccc1 [Example 20, (3R,4S)-3-(N-benzyloxycarbonyl-L-phenylalanyl)-amino-4-phenylthio-azetidin-2-one] | – | – | 0.108 nM
18 | O=C(N[C@@H](Cc1ccccc1)C(=O)N[C@@H]1C(=O)N[C@H]1S(=O)(=O)c1ccccc1)OCc1ccccc1 [Example 21, (3R,4S)-3-(N-benezyloxycarbonyl-phenylalanyl)-amino-4-phenylsulfonyl-azetidin-2-one] | – | 7.39 µM | 0.126 nM
19 | O=C(CCc1ccccc1)N[C@@H](Cc1ccccc1)C(=O)N[C@@H]1C(=O)N[C@H]1Oc1ccccc1 [Example 26, (3S,4S)-3-{N-(3-phenylpropionoyl)-L-phenylalanyl}-amino-4-phenoxy-azetidin-2-one] | – | 2.19 µM | 55.6 nM
20 | O=C(CCc1ccccc1)N[C@@H](Cc1ccccc1)C(=O)N[C@@H]1C(=O)N[C@H]1Oc1ccc(C(=O)O)cc1 [Example 27B, (3S,4S)-3-{N-(3-phenylpropionoyl)-L-phenylalanyl}-amino-4-(4-carboxyphenoxy)-azetidin-2-one] | – | 21.8 µM | 38 nM
21 | O=C(CCc1ccccc1)N[C@@H](Cc1ccccc1)C(=O)N[C@@H]1C(=O)N[C@H]1Oc1cccc(C(=O)O)c1 [Example 28, (3S,4S)-3-{N-(3-phenylpropionoyl)-L-phenylalanyl}-amino-4-(3-carboxyphenoxy)-azetidin-2-one] | – | 0.076 µM | 228 nM
22 | O=C(CCc1ccccc1)N[C@@H](Cc1ccccc1)C(=O)N[C@@H]1C(=O)N[C@H]1Oc1ccc(C[C@H](NC(=O)OCc2ccccc2)C(=O)OC(c2ccccc2)c2ccccc2)cc1 [Example 29A, (3S,4S)-3-{N-(3-phenylpropionoyl)-L-phenylalanyl}-amino-4-{4-(L-2-N-benzyloxycarbonylamino-2-diphenylmethoxycarbonyl-ethyl)-phenoxy}-azetidin-2-one] | – | 0.59 µM | 160 nM
23 | N[C@@H](Cc1ccccc1)C(=O)N[C@@H]1C(=O)N[C@H]1Oc1ccc(C(=O)O)cc1 [Example 30B, (3S,4S)-3-(L-phenylalanyl)-amino-4-(4-carboxyphenoxy)-azetidin-2-one] | – | > 68 µM | 5260 nM
24 | O=C(N[C@@H](Cc1ccccc1)C(=O)N[C@@H]1C(=O)N(S(=O)(=O)O)[C@H]1Sc1ccccc1)OCc1ccccc1 [Example 31, (3R,4S)-3-(N-benzyloxycarbonyl-L-phenylalanyl)-amino-4-phenylthio-azetidin-2-one-1-sulfonic acid] | – | 8.43 µM | 67 nM
25 | CC(=O)O[C@H]1[C@H](NC(=O)[C@H](Cc2ccccc2)NC(=O)OCc2ccccc2)C(=O)N1S(=O)(=O)O [Example 32, (3S,4S)-3-(N-benzyloxycarbonyl-L-phenylalanyl)-amino-4-acetoxy-azetidin-2-one-1-sulfonic acid] | – | 0.368 µM | 26 nM
26 | O=C(N[C@@H](Cc1ccccc1)C(=O)N[C@@H]1C(=O)N[C@H]1Sc1ccncc1)OCc1ccccc1 [Example 34, (3S,4S)-3-(N-benzyloxycarbonyl-L-phenylalanyl)-amino-4-(pyrid-4-yl) thio-azetidin-2-one] | – | 0.33 µM | 16.8 nM
